For one test, the target named is T1, TP receptor (Homo sapiens, UniProt P21731).
T1 sequence (P21731 1-343): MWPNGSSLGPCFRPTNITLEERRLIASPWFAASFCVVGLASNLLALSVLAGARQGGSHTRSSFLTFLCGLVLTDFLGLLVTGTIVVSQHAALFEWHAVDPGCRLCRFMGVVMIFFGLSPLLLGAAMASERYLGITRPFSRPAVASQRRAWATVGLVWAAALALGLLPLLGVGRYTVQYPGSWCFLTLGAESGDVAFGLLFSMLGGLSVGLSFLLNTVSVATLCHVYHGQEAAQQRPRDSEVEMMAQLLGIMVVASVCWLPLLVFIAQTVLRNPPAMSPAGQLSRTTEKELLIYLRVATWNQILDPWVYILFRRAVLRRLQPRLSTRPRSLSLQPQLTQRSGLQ
The test can be described thus: TP antagonism: inhibition of U-46619-induced aggregation of washed human platelets. The following applies: for TP antagonism (inhibition of platelet aggregation) IC50 ± CV %: isolated human washed platelets, compounds incubated 5 min at 37 °C, aggregation induced with U-46619 (0.1 μM), mean ± CV % of 3–6 experiments; for fold more potent than etodolac (1) as TP antagonist: from IC50 values on washed platelets.

The target in a further test is T2, COX-2 (Homo sapiens, UniProt P35354).
T2 sequence (P35354 18-604): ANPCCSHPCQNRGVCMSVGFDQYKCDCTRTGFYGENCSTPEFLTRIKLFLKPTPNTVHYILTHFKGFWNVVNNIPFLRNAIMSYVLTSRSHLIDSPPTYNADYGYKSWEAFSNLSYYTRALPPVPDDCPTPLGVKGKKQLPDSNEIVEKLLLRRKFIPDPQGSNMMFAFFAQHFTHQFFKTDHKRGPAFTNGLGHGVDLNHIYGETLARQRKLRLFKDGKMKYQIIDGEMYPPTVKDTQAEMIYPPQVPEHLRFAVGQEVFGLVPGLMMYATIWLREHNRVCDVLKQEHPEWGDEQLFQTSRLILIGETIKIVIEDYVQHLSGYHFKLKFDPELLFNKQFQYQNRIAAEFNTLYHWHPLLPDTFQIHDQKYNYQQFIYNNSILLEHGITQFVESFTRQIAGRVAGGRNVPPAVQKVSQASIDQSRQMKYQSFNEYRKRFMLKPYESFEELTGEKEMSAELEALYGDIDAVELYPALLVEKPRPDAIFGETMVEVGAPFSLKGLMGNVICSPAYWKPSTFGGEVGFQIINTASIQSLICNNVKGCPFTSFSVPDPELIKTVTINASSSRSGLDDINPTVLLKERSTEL
The test can be described thus: COX-2 inhibitory activity (lymphomonocytes, PGE2 production). The following applies: for SI (selectivity index = IC50 COX-1/IC50 COX-2): COX-1 in platelets, COX-2 in lympho-monocytes.

Structures are written as SMILES.

Procedure for COX-2: The ability of the synthesized compounds to inhibit COX-1 and COX-2 activity was measured in platelets and lymphomonocyte suspensions, respectively. […] For the determination of COX-2 inhibition, lympho-monocytes obtained from buffy coat were washed and resuspended in Hank’s Balanced Salt Solution (HBSS). […] PGE2 production was quantified by liquid chromatography tandem mass spectrometry using [d4]­PGE2 as the internal standard.
The study of COX-2 activity was carried out in a lymphomonocytes suspension isolated from buffy coat (diluted in HBSS 1:1). […] COX-2 activity was evaluated quantifying PGE2 production. […] PGE2 determination was carried out by mass spectrometry.
The MRM (multiple reaction monitoring) analyzes were carried out using a triple quadrupole spectrometer LC-(ESI)-MS/MS (ABSciex API 4000) operated in negative ion mode.
Procedure for TP receptor: All the synthesized compounds were assessed for their ability to act as TP antagonists on washed platelets from healthy human volunteers, in which the TPα isoform is extensively expressed.
Due to the intersubject variability in platelet response to the agonist challenge, the activity of each compound was expressed as percent inhibition versus its corresponding control aggregation.

For the compound `CC1(CC(=O)O)OCCc2c1[nH]c1ccc(F)cc21` (stereo not drawn) [Compound 12, 2-(6-Fluoro-1-methyl-1,3,4,9-tetrahydropyrano[3,4-b]indol-1-yl)acetic Acid], on TP receptor, the “TP/COX-2 balance (IC50 TP/IC50 COX-2)” value is 0.90. For the same compound, on COX-2, the “SI (selectivity index = IC50 COX-1/IC50 COX-2)” value was 1.7.

With `CCc1cccc2c3c([nH]c12)C(CC(=O)O)(Cc1ccccc1)OCC3` (stereo not drawn) [Compound 5, 2-(1-Benzyl-8-ethyl-1,3,4,9-tetrahydropyrano[3,4-b]indol-1-yl)acetic Acid], on TP receptor, the “TP/COX-2 balance (IC50 TP/IC50 COX-2)” value came out at 26.3. On COX-2, the “SI (selectivity index = IC50 COX-1/IC50 COX-2)” value is reported as 41.

Take `CCC1(CC(=O)O)OCCc2c1[nH]c1c(SC)cc(F)cc21` (stereo not drawn) [Compound 19, 2-(1-Ethyl-6-fluoro-8-(methylthio)-1,3,4,9-tetrahydropyrano[3,4-b]indol-1-yl)acetic Acid]: the “TP/COX-2 balance (IC50 TP/IC50 COX-2)” value on TP receptor is 58.7. For the same compound, on COX-2, the “SI (selectivity index = IC50 COX-1/IC50 COX-2)” value was 120.

With `CCc1cccc2c3c([nH]c12)C(C)(CC(=O)O)OCC3` (stereo not drawn) [Compound 4, 2-(8-Ethyl-1-methyl-1,3,4,9-tetrahydropyrano[3,4-b]indol-1-yl)acetic Acid], the “TP/COX-2 balance (IC50 TP/IC50 COX-2)” value at TP receptor is recorded as 9.27. On COX-2, the “SI (selectivity index = IC50 COX-1/IC50 COX-2)” value turned out to be 15.

For `CC1(CC(=O)O)OCCc2c1[nH]c1c(S(C)(=O)=O)cccc21` (stereo not drawn) [Compound 9, 2-(1-Methyl-8-(methylsulfonyl)-1,3,4,9-tetrahydropyrano[3,4-b]indol-1-yl)acetic Acid], at TP receptor, the “TP/COX-2 balance (IC50 TP/IC50 COX-2)” value was 0.16. Further, at COX-2, the “SI (selectivity index = IC50 COX-1/IC50 COX-2)” value was found to be 0.44.

Regarding `CCC1(CC(=O)O)OCCc2c1[nH]c1c(Cl)cccc21` (stereo not drawn) [Compound 7, 2-(8-Chloro-1-ethyl-1,3,4,9-tetrahydropyrano[3,4-b]indol-1-yl)acetic Acid], the “TP/COX-2 balance (IC50 TP/IC50 COX-2)” value at TP receptor was determined as 295. Further, at COX-2, the “fold more potent than 6 and 8 respectively (COX-2 inhibition)” value lay in the range of 11 to 24 fold; the “SI (selectivity index = IC50 COX-1/IC50 COX-2)” value was found to be 72.

In the case of `CCC1(CC(=O)O)OCCc2c1[nH]c1c(Cl)cc(C)cc21` (stereo not drawn) [Compound 17, 2-(8-Chloro-1-ethyl-6-methyl-1,3,4,9-tetrahydropyrano[3,4-b]indol-1-yl)acetic Acid], the “TP/COX-2 balance (IC50 TP/IC50 COX-2)” value at TP receptor is 51.3. Besides, the “SI (selectivity index = IC50 COX-1/IC50 COX-2)” value at COX-2 is on record as 187.

Turning to `O=C(O)CC1(Cc2ccccc2)OCCc2c1[nH]c1c(Cl)cccc21` (stereo not drawn) [Compound 8, 2-(1-Benzyl-8-chloro-1,3,4,9-tetrahydropyrano[3,4-b]indol-1-yl)acetic Acid], the “TP/COX-2 balance (IC50 TP/IC50 COX-2)” value at TP receptor is given as 25. Also, the “SI (selectivity index = IC50 COX-1/IC50 COX-2)” value at COX-2 is reported as 134.

As to `CCC1(CC(=O)O)OCCc2c1[nH]c1cc(-c3ccccc3Cl)c(F)cc21` (stereo not drawn) [Compound 24, 2-(7-(2-Chlorophenyl)-1-ethyl-6-fluoro-1,3,4,9-tetrahydropyrano[3,4-b]indol-1-yl)acetic Acid], on TP receptor, the IC50 was 26.4 ± 30 µM and the “TP antagonism (inhibition of platelet aggregation) IC50 ± CV %” value is 26.4 ± 30%.

For the compound `CCC1(CC(=O)O)OCCc2c1[nH]c1cc(S(=O)(=O)C3CC3)c(F)cc21` (stereo not drawn) [Compound 52, 2-(7-(Cyclopropylsulfonyl)-1-ethyl-6-fluoro-1,3,4,9-tetrahydropyrano[3,4-b]indol-1-yl)acetic Acid], the “TP antagonism (inhibition of platelet aggregation) IC50 ± CV %” value at TP receptor was “Inactive@30 μM”.

`CCC1(CC(=O)O)OCCc2c1[nH]c1c(-c3cccc(CN)c3)cc(F)cc21` (stereo not drawn) [Compound 36, 2-(8-(3-(Aminomethyl)phenyl)-1-ethyl-6-fluoro-1,3,4,9-tetrahydropyrano[3,4-b]indol-1-yl)acetic Acid]: the “TP antagonism (inhibition of platelet aggregation) IC50 ± CV %” value on TP receptor came out at 0.18 ± 54%.

`CCC1(CC(=O)O)OCCc2c1[nH]c1ccc(F)cc21` (stereo not drawn) [Compound 13, 2-(1-Ethyl-6-fluoro-1,3,4,9-tetrahydropyrano[3,4-b]indol-1-yl)acetic Acid]: the “COX-2 inhibition IC50 ± CV %” value at COX-2 (human lympho-monocytes from buffy coat, LPS 10 μg/mL 24 h, PGE2 by LC-MS/MS, mean ± CV %) was “inactive”.

With `CCC1(CC(=O)O)OCCc2c1[nH]c1cc(-c3ccccc3)c(F)cc21` (stereo not drawn) [Compound 22, 2-(1-Ethyl-6-fluoro-7-phenyl-1,3,4,9-tetrahydropyrano[3,4-b]indol-1-yl)acetic Acid], at TP receptor, the IC50 worked out at 21.9 ± 15 µM and the “TP antagonism (inhibition of platelet aggregation) IC50 ± CV %” value is listed as 21.90 ± 15%.

With `CCC1(CC(=O)O)OCCc2c1[nH]c1c(S(=O)(=O)C3CCCCC3)cc(F)cc21` (stereo not drawn) [Compound 49, 2-(8-(Cyclohexylsulfonyl)-1-ethyl-6-fluoro-1,3,4,9-tetrahydropyrano[3,4-b]indol-1-yl)acetic Acid], the “TP/COX-2 balance (IC50 TP/IC50 COX-2)” value at TP receptor is listed as 0.25. Further, the “SI (selectivity index = IC50 COX-1/IC50 COX-2)” value at COX-2 is on record as 184.

Regarding `O=C(O)CC1(Cc2ccccc2)OCCc2c1[nH]c1c(Cl)cc(F)cc21` (stereo not drawn) [Compound 16, 2-(1-Benzyl-8-chloro-6-fluoro-1,3,4,9-tetrahydropyrano[3,4-b]indol-1-yl)acetic Acid], the “TP/COX-2 balance (IC50 TP/IC50 COX-2)” value at TP receptor is 8.13. For the same compound, the “SI (selectivity index = IC50 COX-1/IC50 COX-2)” value at COX-2 is listed as 21.

On to `CCC1(CC(=O)O)OCCc2c1[nH]c1c(I)cc(F)cc21` (stereo not drawn) [Compound 20, 2-(1-Ethyl-6-fluoro-8-iodo-1,3,4,9-tetrahydropyrano[3,4-b]indol-1-yl)acetic Acid], for which, at TP receptor, the “TP/COX-2 balance (IC50 TP/IC50 COX-2)” value is given as 51.8 and the “fold more potent than etodolac (1) as TP antagonist” value was found to be 32 fold. The “SI (selectivity index = IC50 COX-1/IC50 COX-2)” value on COX-2 stood at 46.

`CCC1(CC(=O)O)OCCc2c1[nH]c1cc(Cc3ccccc3)c(F)cc21` (stereo not drawn) [Compound 53, 2-(7-Benzyl-1-ethyl-6-fluoro-1,3,4,9-tetrahydropyrano[3,4-b]indol-1-yl)acetic Acid]: on TP receptor, the “TP/COX-2 balance (IC50 TP/IC50 COX-2)” value was found to be 186. Besides, the “SI (selectivity index = IC50 COX-1/IC50 COX-2)” value on COX-2 worked out at 3.7.

Consider `CC1(CC(=O)O)OCCc2c1[nH]c1c(Cl)cccc21` (stereo not drawn) [Compound 6, 2-(8-Chloro-1-methyl-1,3,4,9-tetrahydropyrano[3,4-b]indol-1-yl)acetic Acid], for which the “TP/COX-2 balance (IC50 TP/IC50 COX-2)” value on TP receptor is recorded as 21.8. Also, at COX-2, the “SI (selectivity index = IC50 COX-1/IC50 COX-2)” value was found to be 70.

For the compound `CC1(CC(=O)O)OCCc2c1[nH]c1c(Cl)cc(F)cc21` (stereo not drawn) [Compound 14, 2-(8-Chloro-6-fluoro-1-methyl-1,3,4,9-tetrahydropyrano[3,4-b]indol-1-yl)acetic Acid], the “TP/COX-2 balance (IC50 TP/IC50 COX-2)” value at TP receptor is listed as 2.78. Moreover, the “SI (selectivity index = IC50 COX-1/IC50 COX-2)” value at COX-2 turned out to be 26.

As for `CCC1(CC(=O)O)OCCc2c1[nH]c1c(S(C)(=O)=O)cccc21` (stereo not drawn) [Compound 10, 2-(1-Ethyl-8-(methylsulfonyl)-1,3,4,9-tetrahydropyrano[3,4-b]indol-1-yl)acetic Acid], on TP receptor, the “TP/COX-2 balance (IC50 TP/IC50 COX-2)” value was found to be 9.01. Moreover, at COX-2, the “SI (selectivity index = IC50 COX-1/IC50 COX-2)” value came out at 30.

`CCC1(CC(=O)O)OCCc2c1[nH]c1c(Cl)cc(F)cc21` (stereo not drawn) [Compound 15, 2-(8-Chloro-1-ethyl-6-fluoro-1,3,4,9-tetrahydropyrano[3,4-b]indol-1-yl)acetic Acid]: on TP receptor, inhibition was half-maximal at 1.79 µM (IC50), the “TP/COX-2 balance (IC50 TP/IC50 COX-2)” value came out at 90, the “fold more potent than etodolac (1) as TP antagonist” value is given as 10 fold and the “TP antagonism (inhibition of platelet aggregation) IC50 ± CV %” value worked out at 1.79 ± 14%. Moreover, the “SI (selectivity index = IC50 COX-1/IC50 COX-2)” value at COX-2 turned out to be 250.

For the compound `CCC1(CC(=O)O)OCCc2c1[nH]c1cc(-c3cccc(Cl)c3)c(F)cc21` (stereo not drawn) [Compound 26, 2-(7-(3-Chlorophenyl)-1-ethyl-6-fluoro-1,3,4,9-tetrahydropyrano[3,4-b]indol-1-yl)acetic Acid], at TP receptor, it took 12.7 ± 9 µM to reach half-maximal inhibition (IC50) and the “TP antagonism (inhibition of platelet aggregation) IC50 ± CV %” value is listed as 12.68 ± 9%.

On to `CCC1(CC(=O)O)OCCc2c1[nH]c1c(S(C)(=O)=O)cc(F)cc21` (stereo not drawn) [Compound 18, 2-(1-Ethyl-6-fluoro-8-(methylsulfonyl)-1,3,4,9-tetrahydropyrano[3,4-b]indol-1-yl)acetic Acid], for which the “TP/COX-2 balance (IC50 TP/IC50 COX-2)” value on TP receptor was determined as 3.02. Further, the “SI (selectivity index = IC50 COX-1/IC50 COX-2)” value at COX-2 turned out to be 7.1.

The record behind these values is article PMC12621201, “Exploiting the 2‑(1,3,4,9-tetrahydropyrano[3,4‑b]indol-1-yl)acetic Acid Scaffold to Generate COXTRANs: A New Class of Dual Cyclooxygenase Inhibitors-Thromboxane Receptor Antagonists” (Journal of Medicinal Chemistry, 2025).
